Entries after “also recorded” stand apart in the source; their conditions may differ. Blank lines part the entries; values can stand above or below the molecule they belong to.
How the values were obtained:
4T1 breast cancer cells [1] = test: Combination treatment with doxorubicin in 4T1 cells; conditions: combination with 50 nM doxorubicin, 4 days
[2] = tested on: BPTF knockdown (KD) 4T1 cells; test: Inhibitors with doxorubicin in shRNA-mediated BPTF knockdown 4T1 cells; type: cell-based, mouse; conditions: inhibitor and doxorubicin, control for off-target effects
Stratifin (Sfn) = test: RT-qPCR of BPTF regulated genes in Eph4 cells, Sfn; conditions: 5 μM, 24 h, relative to DMSO
4T1 breast cancer cells [3] = test: Inhibitor toxicity study in 4T1 cells; type: cell-based, mouse
BRD9 = biological target: T1, BRD9 (Homo sapiens, UniProt Q9H8M2); conditions: previously reported; cited from earlier work
T1 sequence (Q9H8M2 136-240 limits assumed): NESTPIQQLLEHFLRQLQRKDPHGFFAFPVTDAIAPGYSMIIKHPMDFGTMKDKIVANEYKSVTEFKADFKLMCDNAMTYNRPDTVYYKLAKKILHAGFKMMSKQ

PCAF = biological target: T2, PCAF (Homo sapiens, UniProt Q92831); conditions: previously reported; cited from earlier work
T2 sequence (Q92831 723-827 limits assumed): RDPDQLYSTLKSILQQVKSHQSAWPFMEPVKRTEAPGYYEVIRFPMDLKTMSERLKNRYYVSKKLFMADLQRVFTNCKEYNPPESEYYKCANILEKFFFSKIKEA

5FW-CECR2 = 5FW-CECR2 (Homo sapiens, UniProt Q9BXF3); test: Protein-observed fluorine; type: binding; conditions: qualitative
5FW-PCAF = biological target: T3, 5FW-PCAF (Homo sapiens, UniProt Q92831); test: Protein-observed fluorine; type: binding; conditions: qualitative
T3 sequence (Q92831 723-827): T2 sequence (Q92831 723-827 limits assumed)

5FW-BRD4(1) = 5FW-BRD4(1) (Homo sapiens, UniProt O60885); test: Protein-observed fluorine; type: binding; conditions: qualitative
BPTF bromodomain = BPTF bromodomain (Homo sapiens, UniProt Q12830); type: binding; conditions: AlphaScreen
BRD4(1) = BRD4(1) (Homo sapiens, UniProt O60885); test: AlphaScreen competitive inhibition assay, BRD4; type: binding
CECR2 = conditions: cited from earlier work

5FW-CECR2, sequence (Q9BXF3 434-538): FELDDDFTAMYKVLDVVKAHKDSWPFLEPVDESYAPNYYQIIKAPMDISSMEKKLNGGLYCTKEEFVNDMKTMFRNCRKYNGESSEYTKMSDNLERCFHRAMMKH

Structure (SMILES): COC(=O)c1cccc(NC(=O)NC2CCN(c3ccnc(Nc4ccc(F)cc4)n3)C2)c1 (stereo not shown) [AU1, reference compound]
- sensitization of 4T1 cells to doxorubicin (4T1 breast cancer cells [1]): synergize
- further toxicity in BPTF knockdown cells [2]: Additional toxicity
- effect on Sfn mRNA level (Stratifin (Sfn)): upregulated Sfn but did not reach a high enough level of statistical significance
- concentration above which sharp toxicity profile starts (4T1 breast cancer cells [3]): above 16 μM

Structure (SMILES): Cn1ncc(Nc2ccccc2)c(Cl)c1=O [Compound 6, 4-chloro-2-methyl-5-(phenylamino)pyridazin-3(2H)-one]
- affinity for BRD9 (BRD9): 2.5 µM
- affinity for PCAF (PCAF): 10 µM

Structure (SMILES): Cn1ncc(Nc2ccc(CCN)cc2)c(Cl)c1=O [Compound 18, 5-((4-(2-aminoethyl)phenyl)amino)-4-chloro-2-methylpyridazin-3(2H)-one]
- PrOF NMR chemical exchange regime with CECR2 (5FW-CECR2): intermediate chemical exchange
- sensitization of 4T1 cells to doxorubicin (4T1 breast cancer cells [1]; listed as BZ1): sensitized
- PrOF NMR chemical exchange regime with PCAF (5FW-PCAF): slow exchange regime
- PrOF NMR chemical exchange regime with BRD4(1) (5FW-BRD4(1)): fast-intermediate exchange

Structure (SMILES): CN(C)CCc1ccc(Nc2cnn(C)c(=O)c2Cl)cc1 [Compound 19, 4-chloro-5-((4-(2-(dimethylamino)ethyl)phenyl)amino)-2-methylpyridazin-3(2H)-one]
- sensitization of 4T1 cells to doxorubicin (4T1 breast cancer cells [1]): sensitized; also recorded: synergize
- effect on Sfn mRNA level (Stratifin (Sfn)): statistically significant increase

Structure (SMILES): CN(C)CCc1ccc(Nc2c(Cl)cnn(C)c2=O)cc1 [Compound 20, 5-chloro-4-((4-(2-(dimethylamino)ethyl)phenyl)amino)-2-methylpyridazin-3(2H)-one]
- effect on Sfn mRNA level (Stratifin (Sfn)): not significantly affected
- fold weaker affinity than 18 (BPTF bromodomain): 140 fold

- IC50 (BRD4(1)): > 250 µM
Structure (SMILES): CC(C)n1ncc(Nc2ccc(CN)cc2)c(Cl)c1=O [Compound 25, 5-((4-(aminomethyl)phenyl)amino)-4-chloro-2-isopropylpyridazin-3(2H)-one]

Structure (SMILES): CN(C)CCCOc1ccc(-c2cc(NCCCn3cccn3)nc(S(C)(=O)=O)n2)cc1 [TP-238]
- fold higher affinity for CECR2 over BPTF (CECR2): 12 fold

Source: publication PMC9012132 (Journal of medicinal chemistry, 2021)
